Data published in article doi:10.1101/2024.08.19.608619, “Discovery of potent SARS-CoV-2 nsp3 macrodomain inhibitors uncovers lack of translation to cellular antiviral response” (bioRxiv, 2024).
“And” between values parts separate entries of the source, which are not always exact repeats. Equal entries are not always repeated. Where two headings read alike, the source gives them in different places.

Assays:
[1] = tested on: SARS-CoV-2, isolate USA-WA1/2020; assay: microbe, parasite or virus in culture; assay type: cell-based; conditions: HeLa-ACE2 SARS-CoV-2 antiviral effect without P-gp inhibitor; for EC50: read-out: ec50; for EC90: read-out: ec90
KOR receptor = biological target: T1, KOR receptor (Homo sapiens, UniProt P41145); assay: Eurofins CEREP panel, KOR; assay type: binding; conditions: kappa (h) (KOP) (agonist radioligand); test compound concentration 10 uM
T1 construct: purchased Eurofins Cerep (SafetyScreen44), recognised from the panel format

[2] = In vitro human hepatocyte stability; assay type: in vitro ADME
Text: (§1) Supplement media-1.zip/Hepatocyte_Stability.csv, table | column: clint; t_half

[3] = In vitro rat hepatocyte stability; assay type: in vitro ADME
Text: as §1

A2A (h) = biological target: T2, A2A (h) (Homo sapiens, UniProt P29274); assay: In vitro CEREP profiling, A2A (h) (agonist radioligand); assay type: binding; conditions: test compound 10 uM
T2 construct: purchased Eurofins Cerep (SafetyScreen44), recognised from the panel format
Text: (§2) Supplement media-1.zip/Safety_Panel_Profile.csv, table | column: perc_inhibition

H1 (h) = biological target: T3, H1 (h) (Homo sapiens, UniProt P35367); assay: In vitro CEREP profiling, H1 (h) (antagonist radioligand); assay type: binding; conditions: test compound concentration 10 uM
T3 construct: purchased Eurofins Cerep (SafetyScreen44), recognised from the panel format
Text: as §2

COX2(h) = biological target: T4, COX2(h) (Homo sapiens, UniProt P35354); assay: In vitro CEREP profiling, COX2(h); assay type: biochemical; conditions: test compound concentration 10 uM; Enzyme and Cell-based assays
T4 construct: purchased Eurofins Cerep (SafetyScreen44), recognised from the panel format
T4 sequence (P35354 18-604): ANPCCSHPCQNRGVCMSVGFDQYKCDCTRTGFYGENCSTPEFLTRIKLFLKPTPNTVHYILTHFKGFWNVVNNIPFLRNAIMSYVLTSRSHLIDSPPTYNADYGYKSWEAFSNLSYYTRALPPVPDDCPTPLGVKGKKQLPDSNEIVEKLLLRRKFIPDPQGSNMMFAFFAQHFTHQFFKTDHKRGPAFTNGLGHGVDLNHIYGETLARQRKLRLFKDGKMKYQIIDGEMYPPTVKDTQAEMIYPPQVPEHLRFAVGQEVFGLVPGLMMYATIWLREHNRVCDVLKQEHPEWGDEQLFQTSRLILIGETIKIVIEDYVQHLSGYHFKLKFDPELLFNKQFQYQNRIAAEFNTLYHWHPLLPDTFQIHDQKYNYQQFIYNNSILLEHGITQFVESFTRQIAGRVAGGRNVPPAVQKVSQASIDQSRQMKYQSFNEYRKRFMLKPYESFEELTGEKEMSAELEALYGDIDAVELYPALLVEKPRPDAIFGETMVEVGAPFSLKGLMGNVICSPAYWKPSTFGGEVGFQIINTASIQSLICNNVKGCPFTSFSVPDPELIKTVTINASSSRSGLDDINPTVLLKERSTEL
Text: as §2

PDE3A (h) = biological target: T5, PDE3A (h) (Homo sapiens, UniProt Q14432); assay: In vitro CEREP profiling, PDE3A (h); assay type: biochemical; conditions: test compound concentration 10 uM; Enzyme and Cell-based assays
T5 construct: purchased Eurofins Cerep (SafetyScreen44), recognised from the panel format
Text: as §2

beta2 (h) = biological target: T6, beta2 (h) (Homo sapiens, UniProt P07550); assay: In vitro CEREP profiling, beta2 (h) (antagonist radioligand); assay type: binding; conditions: test compound 10 uM
T6 construct: purchased Eurofins Cerep (SafetyScreen44), recognised from the panel format
Text: as §2

BZD (central) = assay: In vitro CEREP profiling, BZD (central) (agonist radioligand); assay type: binding; conditions: test compound 10 uM
Text: as §2

CB2 (h) = biological target: T7, CB2 (h) (Homo sapiens, UniProt P34972); assay: In vitro CEREP profiling, CB2 (h) (agonist radioligand); assay type: binding; conditions: test compound 10 uM
T7 construct: purchased Eurofins Cerep (SafetyScreen44), recognised from the panel format
Text: as §2

V1a (h) = biological target: T8, V1a (h) (Homo sapiens, UniProt P37288); assay: In vitro CEREP profiling, V1a (h) (agonist radioligand); assay type: binding; conditions: test compound concentration 10 uM
T8 construct: purchased Eurofins Cerep (SafetyScreen44), recognised from the panel format
Text: as §2

CB1 (h) = biological target: T9, CB1 (h) (Homo sapiens, UniProt P21554); assay: In vitro CEREP profiling, CB1 (h) (agonist radioligand); assay type: binding; conditions: test compound 10 uM
T9 construct: purchased Eurofins Cerep (SafetyScreen44), recognised from the panel format
Text: as §2

mu (MOP) (h) = biological target: T10, mu (MOP) (h) (Homo sapiens, UniProt P35372); assay: In vitro CEREP profiling, mu (MOP) (h) (agonist radioligand); assay type: binding; conditions: test compound concentration 10 uM
T10 construct: purchased Eurofins Cerep (SafetyScreen44), recognised from the panel format
Text: as §2

HeLa-ACE2 cells = conditions: for perc_max_measured: highest measured response of the dose series; for perc_min_measured: lowest measured response of the dose series
KV channel = assay: In vitro CEREP profiling, KV channel (antagonist radioligand); assay type: binding; conditions: test compound concentration 10 uM
Text: as §2

5-HT1B (h) = biological target: T11, 5-HT1B (h) (Homo sapiens, UniProt P28222); assay: In vitro CEREP profiling, 5-HT1B (h) (antagonist radioligand); assay type: binding; conditions: test compound concentration 10 uM
T11 construct: purchased Eurofins Cerep (SafetyScreen44), recognised from the panel format
Text: as §2

ETA (h) = biological target: T12, ETA (h) (Homo sapiens, UniProt P25101); assay: In vitro CEREP profiling, ETA (h) (agonist radioligand); assay type: binding; conditions: test compound 10 uM
T12 construct: purchased Eurofins Cerep (SafetyScreen44), recognised from the panel format
T12 sequence (P25101 21-427): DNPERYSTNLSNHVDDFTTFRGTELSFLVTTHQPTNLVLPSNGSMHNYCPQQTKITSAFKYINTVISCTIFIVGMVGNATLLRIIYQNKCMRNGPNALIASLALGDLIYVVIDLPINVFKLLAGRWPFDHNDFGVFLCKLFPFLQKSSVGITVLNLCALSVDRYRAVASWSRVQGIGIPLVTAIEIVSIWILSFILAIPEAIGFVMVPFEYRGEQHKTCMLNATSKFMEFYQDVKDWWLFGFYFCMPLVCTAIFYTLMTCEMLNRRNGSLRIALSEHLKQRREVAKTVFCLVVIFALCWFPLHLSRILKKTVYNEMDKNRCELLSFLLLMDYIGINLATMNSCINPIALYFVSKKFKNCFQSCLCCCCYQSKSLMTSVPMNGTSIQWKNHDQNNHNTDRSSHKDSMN
Text: as §2

in vitro = conditions: human, hela-ace2 cells, 50.0
[4] = maximum measured response of dose series
[5] = minimum measured response of dose series
[6] = protocol HeLa-ACE2 cytotoxicity

T1 sequence (P41145 whole entry): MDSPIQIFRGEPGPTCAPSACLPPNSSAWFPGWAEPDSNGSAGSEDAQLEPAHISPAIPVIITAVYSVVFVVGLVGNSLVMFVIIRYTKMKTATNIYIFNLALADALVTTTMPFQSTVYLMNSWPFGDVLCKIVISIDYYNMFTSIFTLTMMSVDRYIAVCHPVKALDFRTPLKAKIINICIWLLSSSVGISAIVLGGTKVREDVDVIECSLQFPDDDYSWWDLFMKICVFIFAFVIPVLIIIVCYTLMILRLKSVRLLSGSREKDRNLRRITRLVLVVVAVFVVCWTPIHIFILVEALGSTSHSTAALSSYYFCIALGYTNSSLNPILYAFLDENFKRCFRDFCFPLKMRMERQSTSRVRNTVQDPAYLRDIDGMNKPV
T5 sequence (Q14432 whole entry): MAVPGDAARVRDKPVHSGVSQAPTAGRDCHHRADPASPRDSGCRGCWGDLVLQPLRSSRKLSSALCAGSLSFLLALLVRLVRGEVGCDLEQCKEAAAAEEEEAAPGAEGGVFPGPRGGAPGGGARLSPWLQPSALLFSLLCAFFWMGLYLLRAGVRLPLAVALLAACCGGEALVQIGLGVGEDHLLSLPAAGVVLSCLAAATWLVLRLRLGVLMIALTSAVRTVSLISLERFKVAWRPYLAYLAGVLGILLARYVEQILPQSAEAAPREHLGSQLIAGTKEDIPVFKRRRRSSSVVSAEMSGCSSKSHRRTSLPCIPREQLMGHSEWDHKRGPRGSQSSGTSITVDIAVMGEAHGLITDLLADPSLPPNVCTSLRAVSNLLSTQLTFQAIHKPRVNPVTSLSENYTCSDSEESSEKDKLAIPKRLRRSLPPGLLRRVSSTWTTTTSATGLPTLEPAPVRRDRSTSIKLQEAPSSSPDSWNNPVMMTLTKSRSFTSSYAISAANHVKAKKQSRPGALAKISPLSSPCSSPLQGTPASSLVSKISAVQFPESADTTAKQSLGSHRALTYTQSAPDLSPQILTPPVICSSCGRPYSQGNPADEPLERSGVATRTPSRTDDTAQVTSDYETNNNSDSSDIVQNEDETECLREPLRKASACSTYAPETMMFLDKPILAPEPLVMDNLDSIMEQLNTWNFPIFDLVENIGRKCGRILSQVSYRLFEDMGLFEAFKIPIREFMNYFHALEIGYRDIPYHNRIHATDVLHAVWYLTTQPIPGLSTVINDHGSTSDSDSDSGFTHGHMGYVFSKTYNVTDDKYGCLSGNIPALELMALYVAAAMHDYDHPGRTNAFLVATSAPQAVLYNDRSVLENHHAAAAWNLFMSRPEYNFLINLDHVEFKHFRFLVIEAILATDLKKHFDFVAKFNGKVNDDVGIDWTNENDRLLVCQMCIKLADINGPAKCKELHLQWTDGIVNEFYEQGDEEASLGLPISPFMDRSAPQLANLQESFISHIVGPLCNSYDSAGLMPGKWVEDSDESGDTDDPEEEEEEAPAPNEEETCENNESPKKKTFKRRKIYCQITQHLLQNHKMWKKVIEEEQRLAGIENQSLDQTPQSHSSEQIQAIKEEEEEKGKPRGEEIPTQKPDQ
T6 sequence (P07550 whole entry): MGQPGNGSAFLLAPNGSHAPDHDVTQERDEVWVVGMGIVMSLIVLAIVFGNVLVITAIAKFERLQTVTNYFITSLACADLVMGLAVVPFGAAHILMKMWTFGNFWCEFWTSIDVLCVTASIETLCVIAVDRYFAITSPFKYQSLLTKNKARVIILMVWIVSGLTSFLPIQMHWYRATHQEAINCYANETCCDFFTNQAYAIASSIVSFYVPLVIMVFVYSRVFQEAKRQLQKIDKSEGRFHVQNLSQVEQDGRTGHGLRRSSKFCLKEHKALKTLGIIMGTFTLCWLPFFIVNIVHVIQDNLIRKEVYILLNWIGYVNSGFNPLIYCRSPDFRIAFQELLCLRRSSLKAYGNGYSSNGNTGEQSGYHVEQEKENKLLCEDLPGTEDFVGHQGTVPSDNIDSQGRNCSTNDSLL
T11 sequence (P28222 whole entry): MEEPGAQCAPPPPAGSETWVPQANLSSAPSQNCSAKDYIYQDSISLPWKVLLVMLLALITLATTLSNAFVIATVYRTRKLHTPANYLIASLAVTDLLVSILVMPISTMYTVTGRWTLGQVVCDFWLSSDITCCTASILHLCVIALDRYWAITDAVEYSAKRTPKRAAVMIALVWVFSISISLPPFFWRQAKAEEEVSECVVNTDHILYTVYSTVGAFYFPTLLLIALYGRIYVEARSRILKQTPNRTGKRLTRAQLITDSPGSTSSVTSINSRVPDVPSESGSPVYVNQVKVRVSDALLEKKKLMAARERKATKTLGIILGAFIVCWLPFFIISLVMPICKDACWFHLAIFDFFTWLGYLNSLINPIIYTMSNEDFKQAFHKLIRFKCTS
T3 sequence (P35367 whole entry): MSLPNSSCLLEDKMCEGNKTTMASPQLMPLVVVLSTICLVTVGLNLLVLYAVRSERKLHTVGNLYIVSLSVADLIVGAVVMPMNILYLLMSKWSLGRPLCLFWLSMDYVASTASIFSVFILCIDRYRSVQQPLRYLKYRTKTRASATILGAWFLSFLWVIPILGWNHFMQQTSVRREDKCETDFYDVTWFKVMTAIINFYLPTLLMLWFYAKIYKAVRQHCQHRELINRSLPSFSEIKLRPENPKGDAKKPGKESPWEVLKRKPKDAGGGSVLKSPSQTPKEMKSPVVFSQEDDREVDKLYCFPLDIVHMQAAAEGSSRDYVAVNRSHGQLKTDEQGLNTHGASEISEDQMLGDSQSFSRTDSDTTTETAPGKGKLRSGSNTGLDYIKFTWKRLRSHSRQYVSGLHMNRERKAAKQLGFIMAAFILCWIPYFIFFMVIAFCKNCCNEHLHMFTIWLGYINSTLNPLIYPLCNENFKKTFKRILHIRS
T9 sequence (P21554 whole entry): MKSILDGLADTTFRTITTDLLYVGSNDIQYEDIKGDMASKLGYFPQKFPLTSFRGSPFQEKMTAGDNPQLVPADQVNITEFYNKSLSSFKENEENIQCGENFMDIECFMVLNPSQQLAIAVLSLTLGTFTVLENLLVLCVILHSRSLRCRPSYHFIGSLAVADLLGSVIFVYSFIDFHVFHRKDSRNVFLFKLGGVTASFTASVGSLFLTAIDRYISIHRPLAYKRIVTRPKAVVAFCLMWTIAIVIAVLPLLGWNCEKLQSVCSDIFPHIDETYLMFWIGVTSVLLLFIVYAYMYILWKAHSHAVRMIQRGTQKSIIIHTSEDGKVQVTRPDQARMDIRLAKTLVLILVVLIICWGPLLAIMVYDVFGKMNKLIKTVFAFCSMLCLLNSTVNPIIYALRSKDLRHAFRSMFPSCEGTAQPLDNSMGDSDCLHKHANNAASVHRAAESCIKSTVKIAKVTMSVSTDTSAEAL
T10 sequence (P35372 whole entry): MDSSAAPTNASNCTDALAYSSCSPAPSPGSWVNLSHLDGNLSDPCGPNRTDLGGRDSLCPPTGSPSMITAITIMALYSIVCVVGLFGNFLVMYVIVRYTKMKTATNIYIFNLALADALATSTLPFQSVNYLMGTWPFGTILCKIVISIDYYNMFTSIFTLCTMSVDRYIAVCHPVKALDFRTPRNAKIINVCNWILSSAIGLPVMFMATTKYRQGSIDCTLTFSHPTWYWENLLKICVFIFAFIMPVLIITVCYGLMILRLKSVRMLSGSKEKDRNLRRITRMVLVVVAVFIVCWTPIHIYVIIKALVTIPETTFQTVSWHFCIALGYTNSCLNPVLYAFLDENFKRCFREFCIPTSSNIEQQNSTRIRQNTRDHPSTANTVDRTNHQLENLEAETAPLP
T8 sequence (P37288 whole entry): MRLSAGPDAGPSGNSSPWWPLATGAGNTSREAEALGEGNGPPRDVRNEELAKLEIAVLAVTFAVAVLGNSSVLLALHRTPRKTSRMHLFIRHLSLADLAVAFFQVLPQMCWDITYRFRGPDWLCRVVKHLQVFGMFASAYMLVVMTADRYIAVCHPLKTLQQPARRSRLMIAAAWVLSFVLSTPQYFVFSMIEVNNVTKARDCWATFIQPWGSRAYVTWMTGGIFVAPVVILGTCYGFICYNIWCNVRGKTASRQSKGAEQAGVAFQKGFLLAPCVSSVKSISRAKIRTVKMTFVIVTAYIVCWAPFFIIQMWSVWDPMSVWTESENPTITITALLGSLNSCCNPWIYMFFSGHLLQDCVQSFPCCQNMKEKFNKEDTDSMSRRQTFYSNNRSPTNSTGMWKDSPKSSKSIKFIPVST
T7 sequence (P34972 whole entry): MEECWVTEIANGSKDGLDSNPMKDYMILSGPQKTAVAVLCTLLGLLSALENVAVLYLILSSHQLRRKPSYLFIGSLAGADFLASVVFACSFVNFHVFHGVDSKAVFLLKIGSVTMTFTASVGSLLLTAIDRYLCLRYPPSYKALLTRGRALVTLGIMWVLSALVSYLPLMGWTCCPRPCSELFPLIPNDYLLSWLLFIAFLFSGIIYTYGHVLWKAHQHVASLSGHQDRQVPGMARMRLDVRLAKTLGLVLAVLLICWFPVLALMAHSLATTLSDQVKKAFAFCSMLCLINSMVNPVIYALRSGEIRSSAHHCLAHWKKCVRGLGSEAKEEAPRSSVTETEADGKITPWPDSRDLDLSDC
T2 sequence (P29274 whole entry): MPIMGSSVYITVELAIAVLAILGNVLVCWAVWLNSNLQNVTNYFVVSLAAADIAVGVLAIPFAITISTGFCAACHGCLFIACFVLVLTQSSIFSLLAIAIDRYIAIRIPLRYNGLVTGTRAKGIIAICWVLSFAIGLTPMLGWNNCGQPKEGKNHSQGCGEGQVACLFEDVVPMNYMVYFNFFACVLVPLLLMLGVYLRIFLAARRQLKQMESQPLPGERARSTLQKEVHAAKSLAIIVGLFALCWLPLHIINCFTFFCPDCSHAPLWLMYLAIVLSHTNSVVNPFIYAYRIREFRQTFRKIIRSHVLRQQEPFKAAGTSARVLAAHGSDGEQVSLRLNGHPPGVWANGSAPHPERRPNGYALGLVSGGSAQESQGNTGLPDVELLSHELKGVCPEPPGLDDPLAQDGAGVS

Row | Compound | perc_max_measured [1, 4] [%] | perc_min_measured ([1]; minimum measured response) [%] | perc_min_measured [1, 5] [%] | EC50 [1] | EC90 [1] | perc_inhibition (% inhibition of the binding of a ligand specific for each target) (KOR receptor) [%] | clint [2] [uL/min/1E6 cells] | t_half [2] [min] | clint [3] [uL/min/1E6 cells] | t_half [3] [min] | perc_inhibition (% inhibition of the binding of a ligand specific for each target) (A2A (h)) [%] | perc_inhibition (% inhibition of the binding of a ligand specific for each target) (H1 (h)) [%] | perc_inhibition: % inhibition of control enzyme activity, COX2(h) (COX2(h)) [%] | perc_inhibition: % inhibition of control enzyme activity, PDE3A (h) (PDE3A (h)) [%] | perc_inhibition (% inhibition of the binding of a ligand specific for each target) (beta2 (h)) [%] | perc_inhibition (% inhibition of the binding of a ligand specific for each target) (BZD (central)) [%] | perc_inhibition (% inhibition of the binding of a ligand specific for each target) (CB2 (h)) [%] | perc_inhibition (% inhibition of the binding of a ligand specific for each target) (V1a (h)) [%] | perc_inhibition (% inhibition of the binding of a ligand specific for each target) (CB1 (h)) [%] | perc_inhibition (% inhibition of the binding of a ligand specific for each target) (mu (MOP) (h)) [%] | also measured
1 | C[C@H](C(=O)O)[C@@H](NC(=O)c1ncnc2[nH]ccc12)c1ccc(Br)cc1 [ASAP-0014722] | 104.611 | 91.919 | 71.809 | > 20 µM | > 20 µM | 2 | < 3.0 | > 231.0 | < 3.0 | > 231.0 | -14 | -8 | 7 | 52 | -8 | -4 | -5 | 62 | -11 | -10 | CC50 (HeLa-ACE2 cells; HeLa-ACE2 cytotoxicity): > 20 µM; cc10 (HeLa-ACE2 cells; HeLa-ACE2 cytotoxicity): > 20.0 µM; perc_max_measured (HeLa-ACE2 cells; HeLa-ACE2 cytotoxicity): 102.029% and 107.127%; perc_min_measured (HeLa-ACE2 cells; HeLa-ACE2 cytotoxicity): 80.657% and 84.357%; perc_inhibition (% inhibition of the binding of a ligand specific for each target) (KV channel): 0%; perc_inhibition (% inhibition of the binding of a ligand specific for each target) (5-HT1B (h)): 1%; perc_inhibition (% inhibition of the binding of a ligand specific for each target) (ETA (h)): -2%; CC50 at 24 h (in vitro): > 20 µM
2 | CNCc1cc(-c2cc3c(N[C@@H](c4ccc5c(c4)S(=O)(=O)CCC5)C(C)C)ncnc3[nH]2)co1 [ASAP-0011176] | 113.346 | 28.123 | 56.361 | 11.6 µM and > 20 µM | > 20 µM | 57 | 14.2 | 48.9 | 15.6 | 44.5 | 21 | -3 | 24 | -5 | 6 | 28 | -8 | 13 | 3 | -5 | perc_max_measured ([1]; maximum measured response): 134.366%; CC50 (HeLa-ACE2 cells; HeLa-ACE2 cytotoxicity): > 20 µM; cc10 (HeLa-ACE2 cells; HeLa-ACE2 cytotoxicity): > 20.0 µM; perc_max_measured (HeLa-ACE2 cells; HeLa-ACE2 cytotoxicity): 120.991%; perc_min_measured (HeLa-ACE2 cells; HeLa-ACE2 cytotoxicity): 77.721%; CC50 (HeLa-ACE2 cells; [6]): > 20 µM; cc10 (HeLa-ACE2 cells; [6]): > 20.0 µM; perc_max_measured (HeLa-ACE2 cells; [6]): 106.042%; perc_min_measured (HeLa-ACE2 cells; [6]): 91.552%; perc_inhibition (% inhibition of the binding of a ligand specific for each target) (KV channel): 1%; perc_inhibition (% inhibition of the binding of a ligand specific for each target) (5-HT1B (h)): 45%; perc_inhibition (% inhibition of the binding of a ligand specific for each target) (ETA (h)): -1%; CC50 at 24 h (in vitro): > 20 µM
3 | CC(C)[C@H](Nc1ncnc2[nH]ccc12)c1ccc2c(c1)S(=O)(=O)CCC2 [ASAP-0008674] | 129.029 | 84.767 | 103.942 | > 20 µM | > 20 µM | 84 | 27.9 | 24.8 | 75.8 | 9.15 | 11 | -3 | 23 | 29 | -1 | 4 | -13 | 6 | -13 | 8 | perc_max_measured ([1]; maximum measured response): 158.705%; CC50 (HeLa-ACE2 cells; HeLa-ACE2 cytotoxicity): > 20 µM; cc10 (HeLa-ACE2 cells; HeLa-ACE2 cytotoxicity): > 20.0 µM; perc_max_measured (HeLa-ACE2 cells; HeLa-ACE2 cytotoxicity): 118.208% and 98.628%; perc_min_measured (HeLa-ACE2 cells; HeLa-ACE2 cytotoxicity): 91.836% and 85.869%; perc_inhibition (% inhibition of the binding of a ligand specific for each target) (KV channel): -10%; perc_inhibition (% inhibition of the binding of a ligand specific for each target) (5-HT1B (h)): 0%; perc_inhibition (% inhibition of the binding of a ligand specific for each target) (ETA (h)): -1%; CC50 at 24 h (in vitro): > 20 µM
4 | CC(C)[C@H](Nc1ncnc2[nH]c(-c3cnn(C)c3C#N)cc12)c1ccc2c(n1)OCCO2 [ASAP-0010715] | 125.33 | 1.508 | 4.425 | 0.508 µM and 0.819 µM | 1.96 µM and 3.36 µM | 31 | 28.7 | 24.2 | 87.5 | 7.92 | 84 | 5 | -2 | 37 | 3 | -2 | 44 | 27 | 46 | 15 | perc_max_measured ([1]; maximum measured response): 105.242%; CC50 (HeLa-ACE2 cells; HeLa-ACE2 cytotoxicity): 12.5 µM and > 20 µM; perc_max_measured (HeLa-ACE2 cells; HeLa-ACE2 cytotoxicity): 90.88% and 122.905% and 97.413%; perc_inhibition (% inhibition of the binding of a ligand specific for each target) (KV channel): 0%; perc_inhibition (% inhibition of the binding of a ligand specific for each target) (5-HT1B (h)): -11%; perc_inhibition (% inhibition of the binding of a ligand specific for each target) (ETA (h)): 42%; CC50 at 24 h (in vitro): > 20 µM
